Laboratory results: patent US12458605B2, “Lipid nanoparticle” (National University Corporation Hokkaido University, priority 2020, dated 2025)
Several values for one entry are separate records, joined by “and”; a condition that tells them apart may be missing. Equal entries are not always repeated.

Experiments:
[1] = Storage stability of FlucmRNA-loaded LNP at −80, 5, 25 and 40° C.; type: physicochemical; conditions: for period for which quality remained good, −80° C.: maximum storage period 1 week
How it was run: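 FlucmRNA-loaded LNPs held at −80, 5, 25 or 40° C; at each time point size, PDI and encapsulation measured. Quality deemed maintained while size stays within ±20 nm of preparation day, PDI ≤0.2 and encapsulation ≥80%; value is the period meeting all three.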

[2] = Average particle size and PDI by dynamic light scattering (Zetasizer Nano ZS); type: physicochemical
Protocol: (§1) The average particle size (number-average value) and PDI in PBS(−) and zeta potential in 10 mM HEPES buffer solution (pH 7.4) of lipid nanoparticles were measured using “Zetasizer Nano ZS ZEN3600”, an analyzer utilizing dynamic light scattering (manufactured by Malvern).

[3] = pKa of lipid nanoparticles by TNS (section II); type: physicochemical; conditions: F7siRNA-loaded LNP; compared with LNP of straight-chain CL4H6 or CL15H6 (FIG. 1)
Protocol: The pKa of lipid nanoparticles was measured using p-toluidino-2-naphthalenesulfonic acid (TNS). First, TNS (final concentration: 0.75 μM) and lipid nanoparticles (final concentration: […]) were mixed in buffer solution adjusted to each pH. The fluorescence intensity of the prepared mixture was measured with a microplate reader. The highest and lowest values among the measured values were taken as 100% and 0% charge rates respectively, and the pH indicating 50% charge rate was calculated as pKa.

F7 [4] = test: In vivo F7 knockdown, plasma F7 enzyme activity, ICR mice; conditions: i.v. 0.003-0.1 mg siRNA/kg, plasma at 24 hours, compared with LNP of CL4H6 or CL15H6 (FIG. 2)
Protocol: Then, each prepared F7siRNA-loaded lipid nanoparticles were administered to ICR mice (4 weeks old, female) and in vivo F7 knockdown activity was examined.
Specifically, each F7siRNA-loaded lipid nanoparticles were intravenously administered to ICR mice at 0.003-0.1 mg siRNA/kg, and plasma F7 enzyme activity at 24 hours later was measured. Relative plasma F7 enzyme activity (%) of mice administered each F7siRNA-loaded lipid nanoparticles was calculated using plasma F7 enzyme activity of untreated mice as 100%. FIG. 2(B) is the results of intravenous administration of each F7siRNA-loaded lipid nanoparticle at 0.1 mg siRNA/kg.

F7 [5] = test: In vivo F7 knockdown, plasma F7 enzyme activity (BIOPHEN FVII), Balb/c mice; conditions: i.v. 0.025 mg siRNA/kg, plasma at 24 hours; for F7 enzyme activity (%): untreated mice as 100%
How it was run: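 Female Balb/c mice, 5 weeks old, received F7 siRNA lipid nanoparticles i.v. at 0.025 mg siRNA/kg; plasma F7 activity measured chromogenically (BIOPHEN FVII) 24 h later. Values are % of untreated mice, also expressed as a ratio to MC3-containing nanoparticles set at 1.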

[6] = Nucleic acid encapsulation rate by Ribogreen (section II); type: physicochemical; conditions: for % mRNA encapsulation: NlucmRNA-loaded LNP, 60:10:40:1; for % pDNA encapsulation: pFluc-loaded LNP
Protocol: The encapsulation rates of siRNA, mRNA, and pDNA of lipid nanoparticles were measured using Ribogreen (manufactured by life technologies).

[7] = siRNA/mRNA encapsulation rate by Ribogreen reagent (section IV); type: physicochemical; conditions: for % siRNA encapsulation: F7siRNA-loaded LNP, 50:10:38.5:1.5, N/P ratio 6; for % mRNA encapsulation: FlucmRNA-loaded LNP, 50:10:38.5:1.5
How it was run: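 LNPs diluted in TE buffer to 8 μg/mL nucleic acid for surface RNA, or to 1.2 μg/mL with 1% Triton X-100 for total RNA. RiboGreen fluorescence (ex 485/em 528 nm) quantified against a Triton-containing standard curve (0-2.5 μg/mL). Encapsulation % = (total − surface)/total × 100.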

[8] = Average particle size (ζ-Average) and PDI by dynamic light scattering (Zetasizer Nano ZSP); type: physicochemical
How it was run: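 Lipid nanoparticles dispersed in PBS(−) were sized by dynamic light scattering, giving the ζ-Average diameter and polydispersity index (PDI).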

[9] = Zeta potential in 10 mM HEPES buffer (pH 7.4); type: physicochemical
Protocol: as §1

spleen = test: In vivo Fluc activity of FlucmRNA-loaded LNP by in vivo imaging, spleen; conditions: Balb/c mice, 6 hours; for Fluc Activity in spleen: FlucmRNA-loaded LNP i.v. 0.1 mg mRNA/kg
How it was run: (§2)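 Female Balb/c mice, 7 weeks old, received LNP i.v. at 0.1 mg mRNA/kg. At 6 h, luciferin was given via tail vein at 1.5 mg per mouse, and liver and spleen luminescence was imaged as Avg Radiance [p/s/cm2/sr] near 560 nm.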

liver = test: In vivo Fluc activity of FlucmRNA-loaded LNP by in vivo imaging, liver; conditions: Balb/c mice, 6 hours; for Fluc Activity in liver: FlucmRNA-loaded LNP i.v. 0.1 mg mRNA/kg
How it was run: as §2

[10] = NlucmRNA-loaded LNP, 60:10:40:1
[11] = NlucmRNA-loaded LNP, lipid:DSPC:cholesterol:PEG-DMG 60:10:40:1
[12] = pFluc-loaded LNP, 50:10:40:1.5, N/P ratio 6
[13] = pFluc-loaded LNP, 50:10:40:1.5, N/P ratio 9
[14] = F7siRNA-loaded LNP, 50:10:38.5:1.5, N/P ratio 6
[15] = FlucmRNA-loaded LNP, lipid:DSPC:cholesterol:DMG-PEG2K 50:10:38.5:1.5
[16] = FlucmRNA-loaded LNP, 50:10:38.5:1.5
[17] = 0.1 mg mRNA/kg, versus LNP comprising CL15F6 (Table 7)

With `CCCCCCCCC(CCCCCC)C(=O)OCCCCCCC(O)(CCCCCCOC(=O)C(CCCCCC)CCCCCCCC)CCCCN(CCC)CCC` (stereo not shown) [CL4F6, 7-(4-(dipropylamino)butyl)-7-hydroxytridecane-1,13-diyl bis(2-hexyldecanoate)] the “period for which quality remained good, −80° C.” value [1] was 1 week, the “period for which quality remained good, 5° C.” value ([1]; maximum storage period 5 weeks) was 5 weeks and the “period for which quality remained good, 25° C.” value ([1]; maximum storage period 5 weeks) was 5 weeks. For the same compound, the “period for which quality remained good, 40° C. (weeks)” value ([1]; maximum storage period 5 weeks) was 5 weeks, the PdI [2, 10] was 0.157 and the “ζ-Average (nm)” value [2, 11] was 127.2 nm. For the same compound, the “ζ-Average (nm)” value [2, 12] was 79.91 nm, the “ζ-Average (nm)” value [2, 13] was 91.3 ± 11.2 nm and the PdI ([2]; pFluc-loaded LNP, N/P ratio 6) was 0.08. The PdI ([2]; pFluc-loaded LNP, N/P ratio 9) was 0.19 ± 0.03, the “pKa of lipid nanoparticle, compared” value [3] was “lower pKa” and the “in vivo F7 knockdown activity, compared” value (F7 [4]) was “equivalent in vivo F7 knockdown activity”. The “F7 enzyme activity (%)” value (F7 [5]) was 6.8%, the “% mRNA encapsulation” value [6] was 90% and the “% pDNA encapsulation” value ([6]; N/P ratio 6) was 97.1%. The “% pDNA encapsulation” value ([6]; N/P ratio 9) was 94.8 ± 3.3%, the “% siRNA encapsulation” value [7] was 99.9% and the “% mRNA encapsulation” value [7] was 99.6% and 99.4%. The PDI [8, 14] was 0.014, the “ζ-Average (nm)” value [8, 14] was 92.27 nm and the “ζ-Average (nm)” value [8, 15] was 82.66 nm and 88.07 nm. For the same compound, the “ζ-potential (mV)” value [9, 10] was −3.72 mV, the “ζ-potential (mV)” value ([9]; pFluc-loaded LNP, N/P ratio 6) was −5.17 mV and the “ζ-potential (mV)” value ([9]; pFluc-loaded LNP, N/P ratio 9) was −1.7 ± 0.5 mV.

In the case of `CCCCCCCC/C=C\CCCCCCCC(=O)OCCCCCCC(O)(CCCCCCOC(=O)CCCCCCC/C=C\CCCCCCCC)CCCCN(CCC)CCC` [CL4H6, 7-(4-(dipropylamino)butyl)-7-hydroxytridecane-1,13-diyl dioleate, reference compound], the “period for which quality remained good, −80° C.” value [1] is reported as 0 week, the “period for which quality remained good, 5° C.” value ([1]; maximum storage period 5 weeks) is reported as 0 week weeks and the “period for which quality remained good, 25° C.” value ([1]; maximum storage period 5 weeks) is reported as 1 week weeks. For the same compound, the “period for which quality remained good, 40° C. (days)” value ([1]; maximum storage period 5 weeks) was 0 day days, the PdI [2, 10] was 0.139 and the “ζ-Average (nm)” value [2, 11] was 113.4 nm. The “ζ-Average (nm)” value [2, 12] was 105.6 nm, the “ζ-Average (nm)” value [2, 13] was 113.9 ± 4.2 nm and the PdI ([2]; pFluc-loaded LNP, N/P ratio 6) was 0.14. For the same compound, the PdI ([2]; pFluc-loaded LNP, N/P ratio 9) was 0.2 ± 0.03, the “Fluc Activity in spleen” value (spleen) was 2.10E+06 Avg Radiance [p/s/cm2/sr] and the “F7 enzyme activity (%)” value (F7 [5]) was 47.2%. For the same compound, the “% mRNA encapsulation” value [6] was 77.6%, the “% pDNA encapsulation” value ([6]; N/P ratio 6) was 41.5% and the “% pDNA encapsulation” value ([6]; N/P ratio 9) was 70 ± 5.2%. For the same compound, the “% siRNA encapsulation” value [7] was 96.1%, the “% mRNA encapsulation” value [7] was 80.1% and the PDI [8, 14] was 0.102. For the same compound, the “ζ-Average (nm)” value [8, 14] was 68.86 nm, the PDI [8, 16] was 0.072 and the “ζ-Average (nm)” value [8, 15] was 71.28 nm. The “Fluc Activity in liver” value (liver) was 1.06E+07 Avg Radiance [p/s/cm2/sr], the “ζ-potential (mV)” value [9, 10] was −1.23 mV and the “ζ-potential (mV)” value ([9]; pFluc-loaded LNP, N/P ratio 6) was −0.57 mV. For the same compound, the “ζ-potential (mV)” value ([9]; pFluc-loaded LNP, N/P ratio 9) was −0.4 ± 0.4 mV.

With `CCCCCCCCCCCCC(CC)C(=O)OCCCCCCC(O)(CCCCCCOC(=O)C(CC)CCCCCCCCCCCC)CCCCOC(=O)C1CCN(C)CC1` (stereo not shown) [CL15F 14-2] the “period for which quality remained good, −80° C.” value [1] was 1 week, the “period for which quality remained good, 5° C.” value ([1]; maximum storage period 5 weeks) was 5 weeks and the “period for which quality remained good, 25° C.” value ([1]; maximum storage period 5 weeks) was 5 weeks. The “period for which quality remained good, 40° C. (weeks)” value ([1]; maximum storage period 5 weeks) was 5 weeks, the “Fluc activity in the spleen, compared with CL15F6” value (spleen; [17]) was “higher Fluc activity” and the “Fluc Activity in spleen” value (spleen) was 7.58E+06 Avg Radiance [p/s/cm2/sr]. The “F7 enzyme activity (Ratio using MC3 as 1)” value (F7 [5]; relative plasma F7 activity of MC3 LNP as 1) was 1.82, the “% siRNA encapsulation” value [7] was 100.2% and the “% mRNA encapsulation” value [7] was 95.70%. For the same compound, the PDI [8, 14] was 0.13, the “ζ-Average (nm)” value [8, 14] was 143.9 nm and the PDI [8, 16] was 0.117. For the same compound, the “ζ-Average (nm)” value [8, 15] was 158.90 nm, the “Fluc activity in the liver, compared with CL15F6” value (liver; [17]) was “higher Fluc activity” and the “Fluc Activity in liver” value (liver) was 1.03E+07 Avg Radiance [p/s/cm2/sr].
